Experimental data published in patent publication US20130289070A1, “Use of Levocabastine for Modulating Generation of Pro-Inflammatory Cytokines” (Bausch & Lomb Incorporated, priority 2007, published 2013).

How the values were obtained:
[1] = tested on: EoL-1 (human eosinophilic leukaemia cell line) cells; test: TNF-α-induced cytokine release, non-differentiated EoL-1 cells (NO PMA) (Luminex); format: cell-based; settings: 24 h, Bio1211 vs TNF-α
Procedure: (§1) EoL-1 (human eosinophilic leukaemia cell line) cells (Saito et al., 1985; Mayumi, 1992) were maintained in RPMI-1640 medium with L-glutamine supplemented with 10% (v/v) FBS at 37° C. in a humidified atmosphere with 5% CO2. Where indicated, 24 h before the experiment 25 ng/mL PMA ((phorbol 12-myristate 13-acetate, purchased from Sigma Aldrich) was added to the medium to induce eosinophil granulation and differentiation (Ohtsu et al., 1993; Zimmermann et al., 2000).
(§2) Half-million cells were aliquoted per point in a 24 well plate; each experiment was performed in triplicate and carried out in parallel with eosinophils differentiated and non differentiated with PMA (25 ng/mL, 24 h). Cells were suspended in low serum medium (RPMI-1640, 0.1% (v/v) FBS). TNF-α was used to induce cytokine secretion as previously described by Steube et al. (2000), and the net release was obtained by comparison to the basal (non-TNF-α treated). In the first experiment we evaluated the concentration and time relation between TNF-α stimulation and cytokine release. Therefore, 5, 10, and 25 ng/mL of TNF-α was administered to the cells at 0, ½, 1, 2, 3, 6, 12 and 24 h (data not shown). An aliquot of 150 μL of supernate was collected for cytokines' analysis. […] Differentiated and non-differentiated EoL-1 cells were exposed from 0.1 to 2.3 mM levocabastine ([…]Levocabastine 0.05% solution eye drops containing cyclodextrins, without benzalkonium chloride), and aliquots of the supernates were collected after 12 and 24 h. The content of cytokines at time zero was estimated by treating the cells with 400 nM calcimycin (A-23187), which is a cytolytic agent that frees all the mediators from the cytoplasmic compartment. In addition, for each experiment we tested the effect of the vehicle, which was added to the wells in a concentration equal to the maximum amount used for drug dilution.
(§3) Samples (supernates 12 and 24 h) in triplicate were analyzed using Luminex 200™ (Luminex, Austin, Tex.) and Beadview software v1.0 (Upstate Cell Signaling Solutions, Temecula, Calif.).
(§4) All data are presented as mean±SEM for the indicated number of experiments. Statistical significance was determined by Newman-Keuls test after ANOVA using GraphPad Prism (version 3.0; GraphPad Software Inc., San Diego, Calif., USA). P-values<0.05 were considered to be significant.

[2] = tested on: EoL-1 (human eosinophilic leukaemia cell line) cells; test: TNF-α-induced cytokine release, EoL-1 cells differentiated with PMA (Luminex); format: cell-based; settings: 24 h, Bio1211 vs TNF-α
Procedure: as §1, §2, §3, §4

4-((2-methylphenyl)aminocarbonyl)-aminophenyl)acetyl-Leu-Asp-Val-Pro-OH [Bio1211]
P < 0.001: IL-1ra (NO PMA), p of decrement [1] | IL-8 (NO PMA), p of decrement [1] | IP-10 (NO PMA), p of decrement [1] | IP-10 (PMA), p of decrement [2] | MCP-1 (PMA), p of decrement [2]
ns: G-CSF (NO PMA), p of decrement [1] | IL-1α (NO PMA), p of decrement [1] | IL-1β (NO PMA), p of decrement [1] | IL-5 (NO PMA), p of decrement [1] | IL-7 (NO PMA), p of decrement [1] | IL-10 (NO PMA), p of decrement [1] | MCP-1 (NO PMA), p of decrement [1] | MIP-1α (NO PMA), p of decrement [1] | MIP-1β (NO PMA), p of decrement [1] | RANTES (NO PMA), p of decrement [1] | TGF-α (NO PMA), p of decrement [1] | VEGF (NO PMA), p of decrement [1] | Fractalkine (PMA), p of decrement [2] | G-CSF (PMA), p of decrement [2] | GM-CSF (PMA), p of decrement [2] | IL-1ra (PMA), p of decrement [2] | IL-1β (PMA), p of decrement [2] | IL-5 (PMA), p of decrement [2] | IL-6 (PMA), p of decrement [2] | IL-7 (PMA), p of decrement [2] | IL-8 (PMA), p of decrement [2] | IL-10 (PMA), p of decrement [2] | MIP-1α (PMA), p of decrement [2] | MIP-1β (PMA), p of decrement [2] | RANTES (PMA), p of decrement [2] | TGF-α (PMA), p of decrement [2]
P < 0.05: Fractalkine (NO PMA), p of decrement [1] | GM-CSF (NO PMA), p of decrement [1] | IL-6 (NO PMA), p of decrement [1] | IL-12p40 (NO PMA), p of decrement [1] | IL-1α (PMA), p of decrement [2] | IL-12p40 (PMA), p of decrement [2] | VEGF (PMA), p of decrement [2]
